We go through one molecule from patent publication US9089526B2, “Pharmaceutical product and analysis model for hormone replacement therapy for women and prevention of some cancers and uterine myomas” (Universidad de Chile, priority 2009, dated 2015).

The structures appear in SMILES notation.

The subject of assay [1] is rat uterus. Put plainly: Estrogenic (agonist) responses in the uterus of prepubertal female rats, substance alone. It is filed as in vivo. To be noted: s.c. On the procedure:
(§1) Prepubertal female rats were treated s.c. with the vehicle (C) (0.3 mL 1:9 ethanol saline), or a phytoestrogenic preparation, followed after one hour by estradiol-17β (E) Merck (0.33 mg/kg b.wt.), or its vehicle. Among the phytoestrogenic compounds used, genistein (G) Sigma (0.5 mg/kg b.wt.), two different concentrations of soybean ethanol extracts (S): 0.06 (Sd) and 0.364 (Sc) mg genistin/kg b.wt., and extracts, decoctions or extract sub-fractions of various plant species. Genistein quantification was based in the indirect valoration of genistein following 2M HCl hydrolysis and genistein quantification by HPLC (45, 46). […] Uteri were excised under ether anesthesia and histologically processed for eosinophil quantification and morphometric analysis of different parameters of estrogen action (22, 34). The following parameters were quantified in the uterus: total uterine eosinophilia (6), percentage of eosinophils according to the distribution in different uterine histological layers and to their degree of degranulation (10, 14); deep endometrial and superficial endometrial edema (47); luminal epithelial, glandular epithelial (34) and myometrial (47) cell hypertrophy, luminal epithelial RNA content (34), and number of mitotic figures for each uterine cell-type.
(§2) Statistics: According to previous studies (14) using the Tukey test of additivity (50), data on some parameters of estrogen stimulation needs to be submitted to logarithmic transformation or to square or cubic root transformation to normalize distribution. Accordingly, the transformations were performed on some of the parameters of estrogen stimulation investigated (14). Transformed and non-transformed data were subjected to further statistical analysis.
(§3) Since multiple comparisons were performed between the different experimental conditions, transformed and non-transformed data (all parameters except eosinophil degranulation and eosinophil distribution between uterine tissue layers) were subjected to the least significant difference a posteriori (LSD) test. The common variance needed for this test was estimated from a one-way unbalanced analysis of variance (ANOVA).
(§4) In uterine eosinophil degranulation and distribution studies, the χ^2 statistic was used to evaluate differences between the proportions.

Assay [2] concerns rat uterus. Put plainly: Modification of estradiol-induced uterine responses in prepubertal female rats, substance given 1 h before estradiol-17β. It is filed as in vivo. To be noted: for Estrogen-induced endometrial edema: pretreatment 1 h before estradiol 0.33 mg/kg s.c. The protocol:
as §1, §2, §3, §4

The test system of assay [3] is human MCF-7 mammary cancer cells. Description: In vitro growth (sulforhodamine B) assay, MCF-7 cells. To be noted: 72 h. It is filed as cell-based. On the procedure: (§5) Cell lines. The experimental cell cultures were obtained from American Type Culture Collection (Rockville, Md., USA). MCF-7 and MDA-MB231 cells (estrogen receptor positive and negative respectively breast cancer cells) were grown in Dulbecco's modified Eagle's medium (DMEM) containing 10% FCS, 100 U/ml penicillin, 100 μg/ml streptomycin and 1 mM glutamine. Cells were seeded into 96 well microtiter plates in 100 μl at plating density of 3×10^3 cells/well. After 24 h incubation at 37° C. under a humidified 5% carbon dioxide to allow cell attachment, the cells were washed with phenol red-free and the medium was changed to phenol red-free DMEM supplemented with 4% dextran-charcoal-stripped foetal calf serum (DCFCS). Then the cells were treated with different concentrations of drugs and incubated for 72 h under the same conditions. Stock solution of compounds was prepared in ethanol and the final concentration of this solvent was kept constant at 1%. Control cultures received 1% ethanol alone.
(§6) In vitro growth inhibition assay. The sulforhodamine B assay was used according to the method of Skehan et al. 1990 (48) with some modifications (49). […] Protein-bound stain was solubilized with 100 μl of 10 mM unbuffered Tris base, and the cell density was determined using a […] (wavelength 540 nm). […]

The test system of assay [4] is human MDAMB-231 mammary cancer cells. Put plainly: In vitro growth (sulforhodamine B) assay, MDAMB-231 cells. Type of assay: cell-based. To be noted: 72 h. On the procedure: as §5, §6
Where [5] appears, read: pretreatment 1 h before estradiol, compared to estradiol alone.
Setting [6] is: pretreatment 1 h before estradiol, mitoses.
The mark [7] stands for this setting: substance alone, absence of estradiol.

For `O=c1c(-c2ccc(O)cc2)coc2cc(O)cc(O)c12` [G, genistein], the “Edema in deep endometrial stroma” value with rat uterus [1] (6 h (FIG. 4)) is “not by G or S”. Moreover, in the assay with rat uterus [1] (6 h (FIG. 6)), the “Proportion of uterine eosinophils located in the mesometrium and in the endometrium with myometrium” value is “all the eosinophils were in the mesometrium”. In addition, the “Endometrial luminal epithelial cell hypertrophy” value with rat uterus [1] (24 h (FIG. 2)) is “response similar to E”. In the assay with rat uterus [1] (24 h (FIG. 3)), the “Endometrial luminal epithelial cell RNA content” value is on record as “response similar to E”. Further, the “Cell proliferation (number of mitotic figures) in myometrium” value in the assay on rat uterus [1] (24 h (FIG. 11)) is listed as “not by G, Sd or Sc”. Moreover, the Myometrial hypertrophy entry with rat uterus [1] (uteri excised 24 h after treatment (FIG. 1)) was “response similar to E”. Moreover, the Estrogen-induced endometrial edema entry with rat uterus [2] (6 h of treatment) is reported as “antagonizes”. Further, in the assay with rat uterus [2] (24 h of treatment), the Estrogen-induced endometrial edema result is “not at 24 h”. Moreover, in the assay on rat uterus [2] (pretreatment 1 h before estradiol, 6 and 24 h considered together), the Estrogen-induced uterine eosinophilia result is “mainly at 6 h of treatment”. In addition, the “Estrogen-induced eosinophilia in the endometrial layer only” value in the assay on rat uterus [2] (pretreatment 1 h before estradiol, 6 or 24 h) is given as “decrease in eosinophils under estrogen treatment is stronger”. In addition, in the assay on rat uterus [2] (setting [5]), the “Degranulation of uterine eosinophils in estrogen-treated rats” value is “decreases the degranulation” and the “Proportion of uterine eosinophils by location (endometrium/myometrium vs mesometrium) in estrogen-treated rats” value is given as “decrease in the proportion of eosinophils located in endometrium with myometrium”. Moreover, in the assay on rat uterus [2] (setting [6]), the “Estrogen-induced cell proliferation in endometrial stroma” value was “almost completely block”, the “Estrogen-induced cell proliferation in myometrium” value was “almost completely block” and the “Estrogen-induced cell proliferation in uterine luminal epithelium” value is given as “almost completely block”. Also, the “Cell proliferation of cultured MCF-7 cells” value in assay [3] (setting [7]) is given as “increased”. Also, the “Cell proliferation of cultured MCF-7 cells” value in assay [3] (substance plus estradiol) is listed as “cell proliferation induced by genistein plus estradiol is higher than that of estradiol alone”. In addition, in assay [4] (setting [7]), the “Cell proliferation of cultured MDAMB-231 cells” value is “slightly inhibited”. The “Cell proliferation of cultured MDAMB-231 cells” value in assay [4] (substance plus estradiol) is on record as “in association with estradiol the inhibitory effect is stronger than that of genistein alone”.
